Literature values, collected in patent US8728493B2, “Polymer based compositions and conjugates of non-steroidal anti-inflammatory drugs” (Nektar Therapeutics, priority 2005, dated 2014).

Settings: non-conjugated drug; conditions not stated

half-life of non-conjugated ketorolac: approximately 2 hours
SMILES: O=C(c1ccccc1)c1ccc2n1CCC2C(=O)O (stereo not shown) [non-conjugated ketorolac, ketorolac]
